Laboratory results: US9108973B2, “3,5-disubstituted alkynylbenzene compound and salt thereof” (Taiho Pharmaceutical Co., Ltd., priority 2012, dated 2015)
Like-named read-outs stand apart in the source and are kept apart here.

Target: purified recombinant human FGFR2 protein (Homo sapiens (Human), UniProt P21802)
Experiment: Measurement of inhibitory effect on FGFR2 kinase activity
Assay type: biochemical

purified recombinant human FGFR2 protein, sequence (P21802 22-821): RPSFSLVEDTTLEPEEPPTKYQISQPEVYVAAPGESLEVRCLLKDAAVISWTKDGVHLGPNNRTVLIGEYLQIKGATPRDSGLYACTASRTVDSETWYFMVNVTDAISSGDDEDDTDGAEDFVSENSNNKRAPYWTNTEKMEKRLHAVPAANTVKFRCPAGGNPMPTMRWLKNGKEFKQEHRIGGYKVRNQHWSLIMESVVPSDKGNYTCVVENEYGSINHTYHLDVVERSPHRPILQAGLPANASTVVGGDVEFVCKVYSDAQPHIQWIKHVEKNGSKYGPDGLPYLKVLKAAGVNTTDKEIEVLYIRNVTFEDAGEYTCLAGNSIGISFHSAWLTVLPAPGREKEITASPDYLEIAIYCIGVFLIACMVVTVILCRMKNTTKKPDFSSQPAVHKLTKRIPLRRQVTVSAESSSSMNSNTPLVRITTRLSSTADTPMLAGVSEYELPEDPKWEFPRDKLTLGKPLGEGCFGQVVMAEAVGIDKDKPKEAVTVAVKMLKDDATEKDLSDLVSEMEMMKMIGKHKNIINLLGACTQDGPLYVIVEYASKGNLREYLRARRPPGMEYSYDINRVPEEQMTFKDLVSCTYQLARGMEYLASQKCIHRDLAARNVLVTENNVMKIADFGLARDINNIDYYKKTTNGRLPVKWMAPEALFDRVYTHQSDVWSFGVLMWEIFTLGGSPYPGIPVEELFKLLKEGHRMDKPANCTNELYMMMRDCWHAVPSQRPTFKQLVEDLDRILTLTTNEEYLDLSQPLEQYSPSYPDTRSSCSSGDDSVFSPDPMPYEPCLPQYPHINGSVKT

IC50 (FGFR2 kinase, FL-Peptide 22 substrate, ATP 75 μM, 25° C. for 120 minutes) [µM]	Structure (SMILES)	IC50 [µM]
> 10	CC(C)c1cc(C#Cc2nn([C@H]3CCN(C(=O)/C=C/CN(C)C)C3)c3ncnc(N)c23)cc(C(C)C)c1 [Ref. Ex. Compound 4, (S)-1-(3-(4-amino-3-((3,5-diisopropylphenyl)ethynyl)-1H-pyrazolo[3,4-d]pyrimidin-1-yl)pyrrolidin-1-yl)-4-(dimethylamino)but-2-en-1-one]	
	C=CC(=O)N1C[C@@H](n2cc(C#Cc3cc(OC)cc(OC)c3)c3c(N)ncnc32)C[C@H]1C(=O)OC [Ex. Compound 66, (2S,4S)-methyl 1-acryloyl-4-(4-amino-5-((3,5-dimethoxyphenyl)ethynyl)-7H-pyrrolo[2,3-d]pyrimidin-7-yl)pyrrolidine-2-carboxylate]	< 0.0003
